Assay: xn = mol fraction of the nth substance listed
Conditions: Liquid, Vibrating tube method

CCCCn1cc[n+](C)c1.F[B-](F)(F)F [1-butyl-3-methylimidazolium tetrafluoroborate] + CO
Conditions	mass density [kg/m3]
298.15 K, 210 kPa, x1 = 0.9102	1203.93
298.15 K, 240 kPa, x1 = 0.2626	1065.61
298.15 K, 250 kPa, x1 = 0.4988	1144.91
298.15 K, 300 kPa, x1 = 0.1302	975.12
298.15 K, 310 kPa, x1 = 0.7501	1186.96
298.15 K, 380 kPa, x1 = 0.0087	804.76
298.15 K, 400 kPa, x1 = 0.0433	867.22
298.15 K, 4380 kPa, x1 = 0.0087	808.51
298.15 K, 5040 kPa, x1 = 0.9102	1206.16
298.15 K, 5080 kPa, x1 = 0.7501	1189.2
298.15 K, 5210 kPa, x1 = 0.2626	1068.88
298.15 K, 5270 kPa, x1 = 0.0433	871.22
298.15 K, 5310 kPa, x1 = 0.4988	1147.71
298.15 K, 5890 kPa, x1 = 0.1302	979.15
298.15 K, 10030 kPa, x1 = 0.7501	1191.5
298.15 K, 10030 kPa, x1 = 0.9102	1208.41
298.15 K, 10050 kPa, x1 = 0.4988	1150.25
298.15 K, 10080 kPa, x1 = 0.2626	1071.94
298.15 K, 10260 kPa, x1 = 0.0433	875.17
298.15 K, 10840 kPa, x1 = 0.1302	982.54
298.15 K, 10910 kPa, x1 = 0.0087	814.38
298.15 K, 15190 kPa, x1 = 0.0433	878.92
298.15 K, 15310 kPa, x1 = 0.9102	1210.74
298.15 K, 15330 kPa, x1 = 0.0087	818.18
298.15 K, 15380 kPa, x1 = 0.2626	1075.12
298.15 K, 15420 kPa, x1 = 0.7501	1193.96
298.15 K, 15620 kPa, x1 = 0.4988	1153.13
298.15 K, 15680 kPa, x1 = 0.1302	985.71
298.15 K, 19940 kPa, x1 = 0.0087	821.99
298.15 K, 20020 kPa, x1 = 0.0433	882.44
298.15 K, 20070 kPa, x1 = 0.9102	1212.8
298.15 K, 20140 kPa, x1 = 0.4988	1155.39
298.15 K, 20750 kPa, x1 = 0.2626	1078.17
298.15 K, 20890 kPa, x1 = 0.7501	1196.42
298.15 K, 20920 kPa, x1 = 0.1302	988.97
298.15 K, 25090 kPa, x1 = 0.2626	1080.52
298.15 K, 25120 kPa, x1 = 0.1302	991.46
298.15 K, 25410 kPa, x1 = 0.4988	1157.92
298.15 K, 25410 kPa, x1 = 0.9102	1215.05
298.15 K, 25420 kPa, x1 = 0.0433	886.2
298.15 K, 25680 kPa, x1 = 0.7501	1198.54
298.15 K, 25770 kPa, x1 = 0.0087	826.59
298.15 K, 30080 kPa, x1 = 0.0433	889.29
298.15 K, 30080 kPa, x1 = 0.7501	1200.46
298.15 K, 30090 kPa, x1 = 0.9102	1216.97
298.15 K, 30120 kPa, x1 = 0.2626	1083.1
298.15 K, 30410 kPa, x1 = 0.4988	1160.24
298.15 K, 30520 kPa, x1 = 0.0087	830.16
298.15 K, 31070 kPa, x1 = 0.1302	994.78
298.15 K, 35070 kPa, x1 = 0.2626	1085.49
298.15 K, 35290 kPa, x1 = 0.7501	1202.69
298.15 K, 35420 kPa, x1 = 0.0433	892.67
298.15 K, 35560 kPa, x1 = 0.1302	997.14
298.15 K, 35740 kPa, x1 = 0.0087	833.9
298.15 K, 35740 kPa, x1 = 0.4988	1162.61
298.15 K, 39560 kPa, x1 = 0.0433	895.16
298.15 K, 39780 kPa, x1 = 0.4988	1164.34
298.15 K, 39880 kPa, x1 = 0.0087	836.72
298.15 K, 39910 kPa, x1 = 0.7501	1204.65
298.15 K, 39910 kPa, x1 = 0.9102	1220.87
298.15 K, 39930 kPa, x1 = 0.9102	1220.88
298.15 K, 39960 kPa, x1 = 0.2626	1087.71
298.15 K, 40120 kPa, x1 = 0.1302	999.4
323.15 K, 230 kPa, x1 = 0.9102	1185.2
323.15 K, 240 kPa, x1 = 0.0087	781
323.15 K, 240 kPa, x1 = 0.7501	1168.14
323.15 K, 260 kPa, x1 = 0.1302	952.36
323.15 K, 440 kPa, x1 = 0.0433	844.94
323.15 K, 670 kPa, x1 = 0.2626	1046.2
323.15 K, 780 kPa, x1 = 0.4988	1126.41
323.15 K, 5040 kPa, x1 = 0.9102	1187.61
323.15 K, 5070 kPa, x1 = 0.7501	1170.7
323.15 K, 5310 kPa, x1 = 0.4988	1128.87
323.15 K, 5320 kPa, x1 = 0.2626	1049.53
323.15 K, 5430 kPa, x1 = 0.0433	849.82
323.15 K, 5440 kPa, x1 = 0.0087	786.6
323.15 K, 6310 kPa, x1 = 0.1302	957.29
323.15 K, 10030 kPa, x1 = 0.9102	1190.07
323.15 K, 10080 kPa, x1 = 0.2626	1052.82
323.15 K, 10090 kPa, x1 = 0.4988	1131.48
323.15 K, 10140 kPa, x1 = 0.1302	960.32
323.15 K, 10160 kPa, x1 = 0.0433	854.23
323.15 K, 10340 kPa, x1 = 0.7501	1173.44
323.15 K, 11020 kPa, x1 = 0.0087	792.32
323.15 K, 15060 kPa, x1 = 0.2626	1056.14
323.15 K, 15120 kPa, x1 = 0.1302	964.14
323.15 K, 15250 kPa, x1 = 0.0433	858.75
323.15 K, 15420 kPa, x1 = 0.4988	1134.4
323.15 K, 15430 kPa, x1 = 0.7501	1176.04
323.15 K, 15440 kPa, x1 = 0.0087	796.64
323.15 K, 15470 kPa, x1 = 0.9102	1192.72
323.15 K, 20070 kPa, x1 = 0.7501	1178.36
323.15 K, 20090 kPa, x1 = 0.9102	1194.92
323.15 K, 20110 kPa, x1 = 0.1302	967.85
323.15 K, 20340 kPa, x1 = 0.0433	863.04
323.15 K, 20430 kPa, x1 = 0.2626	1059.59
323.15 K, 20640 kPa, x1 = 0.0087	801.47
323.15 K, 20740 kPa, x1 = 0.4988	1137.33
323.15 K, 25030 kPa, x1 = 0.4988	1139.71
323.15 K, 25090 kPa, x1 = 0.7501	1180.84
323.15 K, 25120 kPa, x1 = 0.1302	971.44
323.15 K, 25310 kPa, x1 = 0.9102	1197.38
323.15 K, 25630 kPa, x1 = 0.0433	867.24
323.15 K, 25660 kPa, x1 = 0.0087	805.89
323.15 K, 25810 kPa, x1 = 0.2626	1062.91
323.15 K, 29940 kPa, x1 = 0.0433	870.48
323.15 K, 30010 kPa, x1 = 0.4988	1142.47
323.15 K, 30090 kPa, x1 = 0.2626	1065.44
323.15 K, 30410 kPa, x1 = 0.7501	1183.41
323.15 K, 30440 kPa, x1 = 0.1302	975.12
323.15 K, 30450 kPa, x1 = 0.9102	1199.76
323.15 K, 30560 kPa, x1 = 0.0087	809.96
323.15 K, 35210 kPa, x1 = 0.0433	874.21
323.15 K, 35240 kPa, x1 = 0.2626	1068.37
323.15 K, 35240 kPa, x1 = 0.4988	1145.39
323.15 K, 35240 kPa, x1 = 0.7501	1185.69
323.15 K, 35450 kPa, x1 = 0.0087	813.8
323.15 K, 35620 kPa, x1 = 0.1302	978.57
323.15 K, 35860 kPa, x1 = 0.9102	1202.22
323.15 K, 39410 kPa, x1 = 0.0087	816.73
323.15 K, 39620 kPa, x1 = 0.1302	981.14
323.15 K, 39860 kPa, x1 = 0.9102	1204.01
323.15 K, 39890 kPa, x1 = 0.0433	877.31
323.15 K, 39890 kPa, x1 = 0.7501	1187.86
323.15 K, 39970 kPa, x1 = 0.2626	1070.95
323.15 K, 39970 kPa, x1 = 0.4988	1148.04
348.15 K, 340 kPa, x1 = 0.1302	931.46
348.15 K, 420 kPa, x1 = 0.9102	1166.95
348.15 K, 610 kPa, x1 = 0.4988	1107.55
348.15 K, 640 kPa, x1 = 0.0087	757.2
348.15 K, 710 kPa, x1 = 0.0433	821.46
348.15 K, 860 kPa, x1 = 0.2626	1026.35
348.15 K, 870 kPa, x1 = 0.7501	1150.03
348.15 K, 5060 kPa, x1 = 0.2626	1029.49
348.15 K, 5070 kPa, x1 = 0.7501	1152.55
348.15 K, 5310 kPa, x1 = 0.9102	1169.75
348.15 K, 5370 kPa, x1 = 0.0433	826.71
348.15 K, 5410 kPa, x1 = 0.4988	1110.43
348.15 K, 5710 kPa, x1 = 0.1302	936.68
348.15 K, 6020 kPa, x1 = 0.0087	763.72
348.15 K, 10060 kPa, x1 = 0.4988	1113.45
348.15 K, 10060 kPa, x1 = 0.7501	1155.48
348.15 K, 10070 kPa, x1 = 0.9102	1172.42
348.15 K, 10410 kPa, x1 = 0.2626	1033.58
348.15 K, 10670 kPa, x1 = 0.0433	832.4
348.15 K, 10820 kPa, x1 = 0.1302	941.38
348.15 K, 10960 kPa, x1 = 0.0087	769.43
348.15 K, 15090 kPa, x1 = 0.2626	1037.07
348.15 K, 15120 kPa, x1 = 0.0087	774.02
348.15 K, 15120 kPa, x1 = 0.4988	1116.66
348.15 K, 15140 kPa, x1 = 0.1302	945.16
348.15 K, 15150 kPa, x1 = 0.0433	836.97
348.15 K, 15420 kPa, x1 = 0.9102	1175.35
348.15 K, 15870 kPa, x1 = 0.7501	1158.8
348.15 K, 20070 kPa, x1 = 0.4988	1119.71
348.15 K, 20080 kPa, x1 = 0.7501	1161.16
348.15 K, 20110 kPa, x1 = 0.0433	841.77

Reference: the NIST ThermoML archive (doi:10.1016/j.jct.2008.05.005)
